For six compounds, IC50 and MIC results are on record in ChEMBL document CHEMBL4842306, “Pentadecaibins I-V: 15-Residue Peptaibols Produced by a Marine-Derived Trichoderma sp. of the Harzianum Clade” (J Nat Prod, 2021).

Each structure is given as a SMILES string. pIC50: −log10 of the molar value. Non-standard residues stand in square brackets, D forms with d. Residues, ends and D or L forms follow the SMILES beside them. Phe(ol) = N[C@H](CO)Cc1ccccc1; Aib = CC(C)(N)C(=O)O

One test relates to KB. Kind of test: Cytotoxicity against human KB cells assessed as cell viability after 72 hrs by MTT assay. It counts as functional, cell-based.
In a further test the test system is Staphylococcus aureus. Kind of test: Antibacterial activity against Staphylococcus aureus CIP53.156 assessed as inhibition of microbial growth incubated for 24 hrs by spectrophotometry. The format is functional.
In another test the test system is Escherichia coli. The test can be described thus: Antibacterial activity against Escherichia coli CIP54.8T assessed as inhibition of microbial growth incubated for 24 hrs by spectrophotometry. The format is functional.
The test system of another test is Candida albicans. Kind of test: […] isolate Candida albicans assessed as inhibition of microbial growth incubated for 24 hrs by spectrophotometry. It counts as functional.

On to `CC(=O)NC(C)(C)C(=O)NCC(=O)N[C@@H](C)C(=O)N[C@@H](CC(C)C)C(=O)NC(C)(C)C(=O)N[C@@H](CCC(N)=O)C(=O)NC(C)(C)C(=O)N[C@@H](CC(C)C)C(=O)NC(C)(C)C(=O)N[C@@H](C)C(=O)NC(C)(C)C(=O)NC(C)(C)C(=O)NC(C)(C)C(=O)N[C@@H](CCC(N)=O)C(=O)N[C@H](CO)Cc1ccccc1` (Ac-[Aib]GAL[Aib]Q[Aib]L[Aib]A[Aib][Aib][Aib]Q[Phe(ol)]), for which, in the test on KB, the negative logarithm of the IC50 (pIC50) is 5.37. The MIC in the test on Staphylococcus aureus, in the test on Escherichia coli and with Candida albicans was greater than 100 µg/mL in each case.

`CC[C@@](C)(NC(=O)[C@H](CCC(N)=O)NC(=O)C(C)(C)NC(=O)[C@H](CC(C)C)NC(=O)[C@H](C)NC(=O)CNC(=O)C(C)(C)NC(C)=O)C(=O)N[C@@H](CC(C)C)C(=O)NC(C)(C)C(=O)N[C@@H](C)C(=O)NC(C)(C)C(=O)NC(C)(C)C(=O)NC(C)(C)C(=O)N[C@@H](CCC(N)=O)C(=O)N[C@H](CO)Cc1ccccc1`: the pIC50 in the test on KB is 6.10. In addition, the minimal inhibitory concentration (MIC) in the test on Staphylococcus aureus, in the test on Escherichia coli and in the test on Candida albicans was greater than 100 µg/mL in each case.

Turning to `CC(=O)NC(C)(C)C(=O)N1CCC[C@H]1C(=O)NC(C)(C)C(=O)N[C@@H](C)C(=O)NC(C)(C)C(=O)N[C@@H](C)C(=O)N[C@@H](CCC(N)=O)C(=O)NC(C)(C)C(=O)N[C@H](C(=O)NC(C)(C)C(=O)NCC(=O)N[C@@H](CC(C)C)C(=O)NC(C)(C)C(=O)N1CCC[C@H]1C(=O)N[C@H](C(=O)NC(C)(C)C(=O)NC(C)(C)C(=O)N[C@H](CCC(N)=O)C(=O)N[C@H](CCC(N)=O)C(=O)N[C@H](CO)Cc1ccccc1)C(C)C)C(C)C`, the pIC50 with KB is 5.05.

In the case of `CC[C@@](C)(NC(=O)[C@H](CCC(N)=O)NC(=O)C(C)(C)NC(=O)[C@H](CC(C)C)NC(=O)[C@H](C)NC(=O)CNC(=O)C(C)(C)NC(C)=O)C(=O)N[C@H](C(=O)NC(C)(C)C(=O)N[C@@H](C)C(=O)NC(C)(C)C(=O)NC(C)(C)C(=O)NC(C)(C)C(=O)N[C@@H](CCC(N)=O)C(=O)N[C@H](CO)Cc1ccccc1)C(C)C`, in the test on KB, the pIC50 was 6.10. For the same compound, the MIC with Staphylococcus aureus is 25 µg/mL; with Escherichia coli it was greater than 100 µg/mL; in the test on Candida albicans it was greater than 100 µg/mL.

For `CC[C@@](C)(NC(=O)[C@H](CC(C)C)NC(=O)[C@H](C)NC(=O)CNC(=O)C(C)(C)NC(C)=O)C(=O)N[C@@H](CCC(N)=O)C(=O)N[C@](C)(CC)C(=O)N[C@H](C(=O)NC(C)(C)C(=O)N[C@@H](C)C(=O)NC(C)(C)C(=O)NC(C)(C)C(=O)NC(C)(C)C(=O)N[C@@H](CCC(N)=O)C(=O)N[C@H](CO)Cc1ccccc1)C(C)C`, the pIC50 in the test on KB is 6.15. The figures for the MIC with Staphylococcus aureus, with Escherichia coli and with Candida albicans were 25 µg/mL, greater than 100 µg/mL and greater than 100 µg/mL, respectively.

Take `CC(=O)NC(C)(C)C(=O)NCC(=O)N[C@@H](C)C(=O)N[C@@H](CC(C)C)C(=O)NC(C)(C)C(=O)N[C@@H](CCC(N)=O)C(=O)NC(C)(C)C(=O)N[C@H](C(=O)NC(C)(C)C(=O)N[C@@H](C)C(=O)NC(C)(C)C(=O)NC(C)(C)C(=O)NC(C)(C)C(=O)N[C@@H](CCC(N)=O)C(=O)N[C@H](CO)Cc1ccccc1)C(C)C` (Ac-[Aib]GAL[Aib]Q[Aib]V[Aib]A[Aib][Aib][Aib]Q[Phe(ol)]): the pIC50 in the test on KB was 5.62. Moreover, the MIC with Staphylococcus aureus is 25 µg/mL; with Escherichia coli, greater than 100 µg/mL; with Candida albicans, greater than 100 µg/mL.
